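Assay format: 96-well plates, 48-hour exposure. GI50 marks 50% less growth. Definition used: TGI = concentration required for complete inhibition of growth.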
Legend:
Assay in all cases: NCI anticancer screen, dose series, 48 h
786-0 renal = test system: 786-0 renal
A498 renal = test system: A498 renal
A549 NSCLC = test system: A549 NSCLC
ACHN renal = test system: ACHN renal
BT-549 breast = test system: BT-549 breast
CAKI-1 renal = test system: CAKI-1 renal
CCRF-CEM leukemia = test system: CCRF-CEM leukemia
COLO 205 colon = test system: COLO 205 colon
DU-145 prostate = test system: DU-145 prostate
HCC-2998 colon = test system: HCC-2998 colon
HCT-116 colon = test system: HCT-116 colon
HCT-15 colon = test system: HCT-15 colon
HL-60(TB) leukemia = test system: HL-60(TB) leukemia
HOP-62 NSCLC = test system: HOP-62 NSCLC
HOP-92 NSCLC = test system: HOP-92 NSCLC
HS 578T breast = test system: HS 578T breast
HT29 colon = test system: HT29 colon
K-562 leukemia = test system: K-562 leukemia
KM12 colon = test system: KM12 colon
LOX IMVI melanoma = test system: LOX IMVI melanoma
M14 melanoma = test system: M14 melanoma
MALME-3M melanoma = test system: MALME-3M melanoma
MCF7 breast = test system: MCF7 breast
MDA-MB-231 breast = test system: MDA-MB-231 breast
MDA-MB-435 = test system: MDA-MB-435
MOLT-4 leukemia = test system: MOLT-4 leukemia
NCI-H226 lung = test system: NCI-H226 lung
NCI-H23 lung = test system: NCI-H23 lung
NCI-H460 lung = test system: NCI-H460 lung
NCI-H522 lung = test system: NCI-H522 lung
NCI/ADR-RES ovarian = test system: NCI/ADR-RES ovarian
OVCAR-4 ovarian = test system: OVCAR-4 ovarian
OVCAR-5 ovarian = test system: OVCAR-5 ovarian
PC-3 prostate = test system: PC-3 prostate
RPMI-8226 leukemia = test system: RPMI-8226 leukemia
RXF 393 renal = test system: RXF 393 renal
SF-268 CNS = test system: SF-268 CNS
SF-295 CNS = test system: SF-295 CNS
SF-539 CNS = test system: SF-539 CNS
SK-MEL-2 melanoma = test system: SK-MEL-2 melanoma
SK-MEL-28 melanoma = test system: SK-MEL-28 melanoma
SK-MEL-5 melanoma = test system: SK-MEL-5 melanoma
SK-OV-3 ovarian = test system: SK-OV-3 ovarian
SN12C renal = test system: SN12C renal
SNB-19 CNS = test system: SNB-19 CNS
SNB-75 CNS = test system: SNB-75 CNS
SR leukemia = test system: SR leukemia
SW-620 colon = test system: SW-620 colon
T-47D breast = test system: T-47D breast
U251 CNS = test system: U251 CNS
UACC-257 melanoma = test system: UACC-257 melanoma
UACC-62 melanoma = test system: UACC-62 melanoma
UO-31 renal = test system: UO-31 renal

COc1ccc2c(c1)c(CC(=O)[Se]CCC#N)c(C)n2C(=O)c1ccc(Cl)cc1 was tested, and the GI50 (786-0 renal) was 1920 nM, the TGI (786-0 renal) was 3.47 µM and the GI50 (A498 renal) was 1600 nM. It also gave a TGI (A498 renal) of 3.08 µM, a GI50 (A549 NSCLC) of 1870 nM and a TGI (A549 NSCLC) of 3.86 µM. The GI50 (ACHN renal) was 2930 nM, the TGI (ACHN renal) was 7.79 µM and the GI50 (BT-549 breast) was 1710 nM. It also gave a TGI (BT-549 breast) of 3.35 µM, a GI50 (CAKI-1 renal) of 1930 nM and a TGI (CAKI-1 renal) of 3.5 µM. The GI50 (CCRF-CEM leukemia) was 2430 nM, the TGI (CCRF-CEM leukemia) was over 100 µM and the GI50 (COLO 205 colon) was 2260 nM. For the same compound, the TGI (COLO 205 colon) was 4.67 µM, the GI50 (DU-145 prostate) was 2260 nM and the TGI (DU-145 prostate) was 5.93 µM. The GI50 (HCC-2998 colon) was 3.61 µM, the TGI (HCC-2998 colon) was 12.8 µM and the GI50 (HCT-116 colon) was 1740 nM. The TGI (HCT-116 colon) was 3.34 µM, the GI50 (HCT-15 colon) was 2170 nM and the TGI (HCT-15 colon) was 5.27 µM. For the same compound, the GI50 (HL-60(TB) leukemia) was 1200 nM, the TGI (HL-60(TB) leukemia) was 6.25 µM and the GI50 (HOP-62 NSCLC) was 1770 nM. It also gave a TGI (HOP-62 NSCLC) of 3.46 µM, a GI50 (HOP-92 NSCLC) of 1500 nM and a TGI (HOP-92 NSCLC) of 3.11 µM. The GI50 (HS 578T breast) was 2350 nM, the TGI (HS 578T breast) was 8.79 µM and the GI50 (HT29 colon) was 2450 nM. The TGI (HT29 colon) was 7.39 µM, the GI50 (K-562 leukemia) was 3.24 µM and the TGI (K-562 leukemia) was over 100 µM. The GI50 (KM12 colon) was 4.13 µM, the TGI (KM12 colon) was 31 µM and the GI50 (LOX IMVI melanoma) was 1540 nM. For the same compound, the TGI (LOX IMVI melanoma) was 3.96 µM, the GI50 (M14 melanoma) was 1390 nM and the TGI (M14 melanoma) was 3.04 µM. It also gave a GI50 (MALME-3M melanoma) of 1700 nM, a TGI (MALME-3M melanoma) of 4.36 µM and a GI50 (MCF7 breast) of 2560 nM. For the same compound, the TGI (MCF7 breast) was 9.7 µM, the GI50 (MDA-MB-231 breast) was 2040 nM and the TGI (MDA-MB-231 breast) was 4.97 µM. The GI50 (MDA-MB-435) was 1750 nM, the TGI (MDA-MB-435) was 3.47 µM and the GI50 (MOLT-4 leukemia) was 2900 nM. For the same compound, the TGI (MOLT-4 leukemia) was over 100 µM, the GI50 (NCI-H226 lung) was 1550 nM and the TGI (NCI-H226 lung) was 4.01 µM. For the same compound, the GI50 (NCI-H23 lung) was 2280 nM, the TGI (NCI-H23 lung) was 5.86 µM and the GI50 (NCI-H460 lung) was 2370 nM. For the same compound, the TGI (NCI-H460 lung) was 8.38 µM, the GI50 (NCI-H522 lung) was 1840 nM and the TGI (NCI-H522 lung) was 3.54 µM. It also gave a GI50 (NCI/ADR-RES ovarian) of 2180 nM, a TGI (NCI/ADR-RES ovarian) of 6.31 µM and a GI50 (OVCAR-4 ovarian) of 2380 nM. For the same compound, the TGI (OVCAR-4 ovarian) was 6.94 µM, the GI50 (OVCAR-5 ovarian) was 2800 nM and the TGI (OVCAR-5 ovarian) was 8.87 µM. For the same compound, the GI50 (PC-3 prostate) was 2540 nM, the TGI (PC-3 prostate) was 7.35 µM and the GI50 (RPMI-8226 leukemia) was 2510 nM. For the same compound, the TGI (RPMI-8226 leukemia) was 6.99 µM, the GI50 (RXF 393 renal) was 1520 nM and the TGI (RXF 393 renal) was 3.17 µM. For the same compound, the GI50 (SF-268 CNS) was 2310 nM, the TGI (SF-268 CNS) was 5.07 µM and the GI50 (SF-295 CNS) was 1800 nM. It also gave a TGI (SF-295 CNS) of 3.3 µM, a GI50 (SF-539 CNS) of 2020 nM and a TGI (SF-539 CNS) of 4.36 µM. It also gave a GI50 (SK-MEL-2 melanoma) of 2390 nM, a TGI (SK-MEL-2 melanoma) of 5.43 µM and a GI50 (SK-MEL-28 melanoma) of 2190 nM. The TGI (SK-MEL-28 melanoma) was 5.66 µM, the GI50 (SK-MEL-5 melanoma) was 2050 nM and the TGI (SK-MEL-5 melanoma) was 4.18 µM. The GI50 (SK-OV-3 ovarian) was 3.62 µM, the TGI (SK-OV-3 ovarian) was 6.33 µM and the GI50 (SN12C renal) was 2490 nM. For the same compound, the TGI (SN12C renal) was 6.67 µM, the GI50 (SNB-19 CNS) was 1890 nM and the TGI (SNB-19 CNS) was 3.58 µM. The GI50 (SNB-75 CNS) was 1500 nM, the TGI (SNB-75 CNS) was 3.72 µM and the GI50 (SR leukemia) was 3.78 µM. For the same compound, the TGI (SR leukemia) was over 100 µM, the GI50 (SW-620 colon) was 3.41 µM and the TGI (SW-620 colon) was 10.4 µM. For the same compound, the GI50 (T-47D breast) was 9.78 µM, the TGI (T-47D breast) was 38.8 µM and the GI50 (U251 CNS) was 1660 nM. The TGI (U251 CNS) was 3.11 µM, the GI50 (UACC-257 melanoma) was 1600 nM and the TGI (UACC-257 melanoma) was 3.46 µM. It also gave a GI50 (UACC-62 melanoma) of 1940 nM, a TGI (UACC-62 melanoma) of 4.7 µM and a GI50 (UO-31 renal) of 1730 nM. It also gave a TGI (UO-31 renal) of 4.2 µM.
